biological target: T1, KAT6A (Homo sapiens, UniProt Q92794); assay: Enzymatic activity assay for KAT6A acetyltransferase (TR-FRET, acetylation of histone substrate H3); format: biochemical
T1 construct: purchased active motife (Active Motif) 81223
Experimental: The acetylation effect of KAT6A on histone substrate H3 was determined using the TR-FRET (time-resolved fluorescence resonance energy transfer) method.
• 1) The compounds prepared in the examples of the present disclosure were each dissolved in dimethylsulfoxide to give solutions at a concentration of 10 mmol/L, and then the solutions were diluted to 0.2 mmol/L, i.e., 1 µL of the compound was added to 49 µL of DMSO, and 3-fold dilution was performed to give 10 concentrations. • 2) 50 nL of the test compounds (example compounds) were transferred to 384 reaction plates using Echo, two replicates for each compound, and the plates were centrifuged at a rotation speed of 1000 rpm for 1 min, the final concentration of dimethylsulfoxide (DMSO) being 0.5%. • 3) 2.5 µL of the reaction mixtures obtained in step 2 was added to the 384 reaction plates in step 2), and the plates were centrifuged at 1000 rpm for 1 min and incubated at 25 °C for 10 min. • 4) 2.5 µL of Bio-H3&AcCOA (acetyl-CoA) reaction solution was added to the 384 reaction plates in step 3), and the plates were centrifuged at a rotation speed of 1000 rpm for 1 min and incubated at 25 °C for 90 min. • 5) 5 µL of Eu-Ab& Ulight-SA detection solution was added to the 384 reaction plates in step 4), and the plates were centrifuged at 1000 rpm for 1 min and incubated at 25 °C for 60 min. • 6) The HTRF […] signals were read using a BMG high-throughput drug-screening multi-mode microplate reader.
The acetylation level of the histone H3 was analyzed by the GraphPad Prism 8 software. The reading of the negative control (0.5% DMSO wells) was set as 0% inhibition rate, and the reading of the positive control (wells with the highest concentration of the control compound) was set as 100% inhibition rate. The inhibition rates were calculated, and then IC50 values (half maximal inhibitory concentration) of test compounds were obtained by using a software nonlinear fitting formula; [formula]
Datapositive control: mean of positive control well values; Datanegative control: mean of negative control well values. Table 3. Enzymatic inhibitory activity of example compounds

T1 sequence (Q92794 whole entry): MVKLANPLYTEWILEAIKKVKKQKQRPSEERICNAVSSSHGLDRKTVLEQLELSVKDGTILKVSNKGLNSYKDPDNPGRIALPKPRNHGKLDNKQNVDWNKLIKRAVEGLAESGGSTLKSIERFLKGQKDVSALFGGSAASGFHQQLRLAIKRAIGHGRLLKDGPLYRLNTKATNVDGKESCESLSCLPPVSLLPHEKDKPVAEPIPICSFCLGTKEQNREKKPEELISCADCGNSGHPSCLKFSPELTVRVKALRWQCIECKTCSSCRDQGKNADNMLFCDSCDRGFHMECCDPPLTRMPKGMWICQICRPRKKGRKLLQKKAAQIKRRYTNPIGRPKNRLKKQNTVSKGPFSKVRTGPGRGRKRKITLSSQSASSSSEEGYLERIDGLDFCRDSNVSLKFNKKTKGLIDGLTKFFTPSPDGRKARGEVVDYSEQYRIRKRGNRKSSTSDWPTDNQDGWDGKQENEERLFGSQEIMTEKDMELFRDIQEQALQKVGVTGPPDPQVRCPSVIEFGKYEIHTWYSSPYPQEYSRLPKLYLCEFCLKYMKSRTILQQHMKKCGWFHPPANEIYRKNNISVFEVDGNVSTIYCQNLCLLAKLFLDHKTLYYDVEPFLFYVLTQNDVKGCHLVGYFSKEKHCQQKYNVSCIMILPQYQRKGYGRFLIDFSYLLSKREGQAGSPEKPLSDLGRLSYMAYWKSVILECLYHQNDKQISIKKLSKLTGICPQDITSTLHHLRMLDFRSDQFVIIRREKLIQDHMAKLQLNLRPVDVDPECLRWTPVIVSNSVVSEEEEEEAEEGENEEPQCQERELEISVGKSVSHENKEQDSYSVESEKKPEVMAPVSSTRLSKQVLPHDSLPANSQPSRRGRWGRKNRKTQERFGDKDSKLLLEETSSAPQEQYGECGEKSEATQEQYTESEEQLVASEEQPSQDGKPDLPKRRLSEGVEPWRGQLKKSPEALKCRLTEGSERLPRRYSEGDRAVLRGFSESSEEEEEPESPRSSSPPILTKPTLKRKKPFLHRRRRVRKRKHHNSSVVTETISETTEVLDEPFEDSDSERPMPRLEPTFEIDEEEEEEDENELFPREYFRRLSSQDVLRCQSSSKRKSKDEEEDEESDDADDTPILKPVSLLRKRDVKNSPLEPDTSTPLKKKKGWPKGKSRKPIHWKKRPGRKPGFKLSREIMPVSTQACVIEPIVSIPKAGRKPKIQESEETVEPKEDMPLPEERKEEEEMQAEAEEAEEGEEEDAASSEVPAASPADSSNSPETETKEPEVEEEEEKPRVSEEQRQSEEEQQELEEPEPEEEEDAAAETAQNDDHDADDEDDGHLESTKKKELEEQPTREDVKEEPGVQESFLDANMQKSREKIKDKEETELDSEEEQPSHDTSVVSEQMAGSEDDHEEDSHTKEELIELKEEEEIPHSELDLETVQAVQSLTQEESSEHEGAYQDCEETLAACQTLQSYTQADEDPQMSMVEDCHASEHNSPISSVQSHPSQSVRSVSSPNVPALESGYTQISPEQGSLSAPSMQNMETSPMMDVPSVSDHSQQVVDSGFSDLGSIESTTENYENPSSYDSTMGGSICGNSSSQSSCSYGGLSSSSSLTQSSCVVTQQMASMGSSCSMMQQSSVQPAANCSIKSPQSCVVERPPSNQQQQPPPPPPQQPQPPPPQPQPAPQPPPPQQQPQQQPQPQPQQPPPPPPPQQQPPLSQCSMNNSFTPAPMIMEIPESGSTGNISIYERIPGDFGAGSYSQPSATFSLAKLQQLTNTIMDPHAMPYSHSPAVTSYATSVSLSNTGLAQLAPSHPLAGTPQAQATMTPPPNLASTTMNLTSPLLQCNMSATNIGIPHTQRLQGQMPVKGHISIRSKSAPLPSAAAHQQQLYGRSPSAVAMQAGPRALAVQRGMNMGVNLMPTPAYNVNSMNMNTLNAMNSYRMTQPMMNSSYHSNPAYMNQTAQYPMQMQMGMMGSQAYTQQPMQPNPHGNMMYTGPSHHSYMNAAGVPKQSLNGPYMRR

Row | Structure (SMILES) | IC50
1 | COc1nc(Cn2cccn2)cc2onc(NS(=O)(=O)c3ccc4c(c3)CN(C)C(=O)O4)c12 [Example 54, N-(6-((1H-Pyrazol-1-yl)methyl)-4-methoxyisoxazolo[4,5-c]pyridin-3-yl)-3-methyl-2-oxo-3,4-dihydro-2H-benzoxazine-6-sulfonamide] | 110 nM
2 | COc1nc(Cn2cccn2)cc2onc(NS(=O)(=O)c3cccc4occc34)c12 [Example 47, N-(6-((1H-Pyrazol-1-yl)methyl)-4-methoxyisoxazolo[4,5-c]pyridin-3-yl)benzofuran-4-sulfonamide] | 4.67 nM
3 | COc1cc2c(ccn2C)cc1S(=O)(=O)Nc1noc2cc(Cn3cccn3)nc(OC)c12 [Example 69, N-(6-((1H-Pyrazol-1-yl)methyl)-4-methoxyisoxazolo[4,5-c]pyridin-3-yl)-6-methoxy-1-methyl-1H-indole-5-sulfonamide] | 0.87 nM
4 | COc1ccc2ccn(C)c2c1S(=O)(=O)Nc1noc2cc(Cn3cccn3)nc(OC)c12 [Example 56, N-(6-((1H-Pyrazol-1-yl)methyl)-4-methoxyisoxazolo[4,5-c]pyridin-3-yl)-6-methoxy-1-methyl-1H-indole-7-sulfonamide] | 16.3 nM
5 | COc1nc(Cn2cccn2)cc2onc(NS(=O)(=O)c3cccc4c3OC(F)(F)O4)c12 [Example 51, N-(6-((1H-Pyrazol-1-yl)methyl)-4-methoxyisoxazolo[4,5-c]pyridin-3-yl)-2,2-difluorobenzodioxole-4-sulfonamide] | 18.2 nM
6 | COc1nc(Cn2cccn2)cc2onc(NS(=O)(=O)c3ccc4c(c3)CCCO4)c12 [Example 50, N-(6-((1H-Pyrazol-1-yl)methyl)-4-methoxyisoxazolo[4,5-c]pyridin-3-yl)-3,4-dihydro-1H-benzopyran-6-sulfonamide] | 8.67 nM
7 | COc1nc(Cn2cccn2)cc2onc(NS(=O)(=O)c3cccc4c3CCC4)c12 [Example 26, N-(6-((1H-Pyrazol-1-yl)methyl)-4-methoxyisoxazolo[4,5-c]pyridin-3-yl)-2,3-dihydro-1H-indene-4-sulfonamide] | 21.8 nM
8 | COc1ccc2ccoc2c1S(=O)(=O)Nc1noc2cc(Cn3cc(F)cn3)nc(OC)c12 [Example 68, N-(6-((4-Fluoro-1H-pyrazol-1-yl)methyl)-4-methoxyisoxazolo[4,5-c]pyridin-3-yl)-6-methoxvbenzofuran-7-sulfonamide] | 2.41 nM
9 | COc1nc(Cn2nccn2)cc2onc(NS(=O)(=O)c3cccc4c3OCCO4)c12 [Example 29, N-(6-((2H-1,2,3-Triazol-2-yl)methyl)-4-methoxyisoxazolo[4,5-c]pyridin-3-yl)-2,3-dihydrobenzo[b][1,4]dioxine-5-sulfonamide] | 1.57 nM
10 | COc1nc(Cn2cccn2)cc2onc(NS(=O)(=O)c3cccc4ccn(C)c34)c12 [Example 49, N-(6-((1H-Pyrazol-1-yl)methyl)-4-methoxyisoxazolo[4,5-c]pyridin-3-yl)-1-methyl-1H-indole-7-sulfonamide] | 67.8 nM
11 | C#Cc1ccc(S(=O)(=O)Nc2noc3cc(Cn4cccn4)nc(OC)c23)c2c1CCO2 [Example 33, N-(6-((1H-Pyrazol-1-yl)methyl)-4-methoxyisoxazolo[4,5-c]pyridin-3-yl)-4-ethynyl-2,3-dihydrobenzofuran-7-sulfonamide] | 3.13 nM
12 | COc1nc(Cc2cocn2)cc2onc(NS(=O)(=O)c3cccc4c3OCCO4)c12 [Example 31, N-(4-Methoxy-6-(oxazol-4-ylmethyl)isoxazolo[4,5-c]pyridin-3-yl)-2,3-dihydrobenzo[b][1,4]dioxine-5-sulfonamide] | 68.6 nM

The next lines start with the values.

Row | IC50 | Structure (SMILES)
13 | 0.95 nM | COc1cc2c(c(OC)c1S(=O)(=O)Nc1noc3cc(Cn4cccn4)nc(OC)c13)CCO2 [Example 97, N-(6-((1H-pyrazol-1-yl)methyl)-4-methoxyisoxazolo[4,5-c]pyridin-3-yl)-4,6-dimethoxy-2,3-dihydrobenzofuran-5-sulfonamide]
14 | 1.86 nM | [2H]C1Oc2cc(S(=O)(=O)Nc3noc4cc(Cn5cccn5)nc(OC)c34)c(OC)cc2C1[2H] (stereo not drawn) [Example 103, N-(6-((1H-pyrazol-1-yl)methyl)-4-methoxyisoxazolo[4,5-c]pyridin-3-yl)-5-methoxy-2,3-dihydrobenzofuran-6-sulfonamide-2,3-d2]
15 | 2.37 nM | COc1ccc(S(=O)(=O)Nc2noc3cc(Cn4cccn4)nc(OC)c23)c2c1C=CCO2 [Example 94, N-(6-((1H-Pyrazol-1-yl)methyl)-4-methoxyisoxazolo[4,5-c]pyridin-3-yl)-5-methoxy-2H-benzopyran-8-sulfonamide]
16 | 0.83 nM | [2H]c1cc2ccc(OC)c(S(=O)(=O)Nc3noc4cc(Cn5cccn5)nc(OC)c34)c2o1 [Example 102, N-(6-((1H-pyrazol-1-yl)methyl)-4-methoxyisoxazolo[4,5-c]pyridin-3-yl)-6-methoxybenzofuran-7-sulfonamide-2-d]
17 | 1.26 nM | COc1cc2occc2cc1S(=O)(=O)Nc1noc2cc(Cn3cccn3)nc(OC)c12 [Example 108, N-(6-((1H-pyrazol-1-yl)methyl)-4-methoxyisoxazolo[4,5-c]pyridin-3-yl)-6-methoxybenzofuran-5-sulfonamide]
18 | 1.91 nM | COc1ccc2c(c1S(=O)(=O)Nc1noc3cc(Cn4cccn4)nc(OC)c13)CCC2 [Example 77, N-(6-((1H-Pyrazol-1-yl)methyl)-4-methoxyisoxazolo[4,5-c]pyridin-3-yl)-5-methoxy-2,3-dihydro-1H-indene-4-sulfonamide]
19 | 7.97 nM | COc1ccc2occ(S(=O)(=O)Nc3noc4cc(Cn5cccn5)nc(OC)c34)c2c1 [Example 78, N-(6-((1H-Pyrazol-1-yl)methyl)-4-methoxyisoxazolo[4,5-c]pyridin-3-yl)-5-methoxybenzofuran-3-sulfonamide]
20 | 2.04 nM | COc1cc2c(cc1S(=O)(=O)Nc1noc3cc(Cn4cccn4)nc(OC)c13)OCC2(C)C [Example 101, N-(6-((1H-pyrazol-1-yl)methyl)-4-methoxyisoxazolo[4,5-c]pyridin-3-yl)-5-methoxy-3,3-dimethyl-2H-benzofuran-6-sulfonamide]
21 | 4.49 nM | COc1ccc2ccoc2c1S(=O)(=O)Nc1noc2cc(Cn3ccc(C)n3)nc(OC)c12 [Example 71, 6-Methoxy-N-(4-methoxy-6-((3-methyl-1H-pyrazol-1-yl)methyl)isoxazolo[4,5-c]pyridin-3-yl)benzofuran-7-sulfonamide]
22 | 0.94 nM | COc1nc(Cn2cccn2)cc2onc(NS(=O)(=O)c3cc(C4CC4)cc4c3OCCC4)c12 [Example 106, N-(6-((1H-pyrazol-1-yl)methyl)-4-methoxyisoxazolo[4,5-c]pyridin-3-yl)-6-cyclopropyl-3,4-dihydro-1H-benzopyran-8-sulfonamide]
23 | 0.97 nM | COc1ccc2c(c1S(=O)(=O)Nc1noc3cc(Cn4cccn4)nc(OC)c13)OCCO2 [Example 73, N-(6-((1H-Pyrazol-1-yl)methyl)-4-methoxyisoxazolo[4,5-c]pyridin-3-yl)-6-methoxy-2,3-dihydrobenzo[b][1,4]dioxine-5-sulfonamide]
24 | 6.67 nM | C#Cc1ccc(S(=O)(=O)Nc2noc3cc(Cn4cccn4)nc(OC)c23)c2occc12 [Example 96, N-(6-((1H-pyrazol-1-yl)methyl)-4-methoxyisoxazolo[4,5-c]pyridin-3-yl)-4-ethynyl-benzofuran-7-sulfonamide]
